Laboratory results published in patent US9562035B2, “Benzamide derivative useful as FASN inhibitors for the treatment of cancer” (Janssen Pharmaceutica NV, priority 2013, dated 2017).
pEC50: −log10 of the molar value.

Columns and labels:
Format in all cases: cell-based
[1] = Cytotoxicity in HeLa cells (ATPlite); conditions: human, in parallel to RSV assay, read-out: CC50 (Toxicity HeLa Cells)
Protocol: (§1) Black 96-well clear-bottom microtiter plates (Corning, Amsterdam, The Netherlands) were filled in duplicate using a customized robot system with serial 4-fold dilutions of test compound in a final volume of 50 μl culture medium [RPMI medium without phenol red, 10% FBS, 0.04% gentamycin (50 mg/mL) and 0.5% DMSO]. Then, 100 μl of a HeLa cell suspension (5×10^4 cells/mL) in culture medium was added to each well followed by the addition of 50 μl rgRSV224 (MOI=0.02) virus in culture medium using a multidrop dispenser (Thermo Scientific, Erembodegem, Belgium). rgRSV224 virus is an engineered virus that includes an additional GFP gene (HALLAK, L. K., et. al., “Glycosaminoglycan sulfation requirements for respiratory syncytial virus infection.” J. Virol., 2000, pp 10508-10513, Vol. […]). Medium, virus- and mock-infected controls were included in each test. Cells were incubated at 37° C. in a 5% CO2 atmosphere. Three days post-virus exposure, viral replication was quantified by measuring GFP expression in the cells by a MSM laser microscope (Tibotec, Beerse, Belgium). […] In parallel, test compounds were incubated for three days in a set of white 96-well microtitier plates (Corning) and the cytotoxicity of compounds in HeLa cells was determined by measuring the ATP content of the cells using the ATPlite kit (PerkinElmer, Zaventem, Belgium) according to the manufacturer's instructions. […]

[2] = Cytotoxicity in HepG2 cells (Resazurin assay); conditions: human, read-out: CC50 (Toxicity HepG2-4d)
Protocol: (§2) The anti-HBV activity was measured using the HepG2.117 cell line, a stable, inducibly HBV producing cell line (SUN D., et al., “Stable HepG2- and Huh7-based human hepatoma cell lines for efficient regulated expression of infectious hepatitis B virus”, J. of Hepatology, 2006, pp 636-645, Vol. 45) which replicates HBV in the absence of doxycycline (Tet-off system). For the antiviral assay, HBV replication was induced, followed by a treatment with serially diluted compound in 96-well plates in duplicate. After 3 days of treatment, the antiviral activity was determined by quantification of intracellular or extracellular HBV DNA using realtime PCR and an HBV specific primer set and probe. Cytotoxicity of the test compounds was tested using HepG2 cells, incubated for 4 days in the presence of test compounds. The viability of the cells was assessed using a Resazurin assay. The CC50 was defined as the 50% concentration for cytotoxicity

HBV = test: Antiviral Activity Against HBV Replication (HBV DNA, HepG2.117 cell line); conditions: Hepatitis B virus, 72 h; HepG2.117 cells, 3 days, HBV DNA by realtime PCR
Protocol: as §2

rgRSV224 virus = test: Antiviral Activity Against RSV (GFP expression in HeLa cells); conditions: human respiratory syncytial virus, 72 h, read-out: EC50 (RSV Antiviral Activity)
Protocol: as §1

Work on Cc1ccc(C(=O)N2CCC(c3ccc(-c4cnn(C)c4)cc3)CC2)cc1NC(=O)c1ccc(NC(C)C)nc1 [Compound #32, 6-(isopropylamino)-N-(2-methyl-5-(4-(4-(1-methyl-1H-pyrazol-4-yl)phenyl)piperidine-1-carbonyl)phenyl)nicotinamide] yielded a CC50 at 3 days [1] of over 25 µM, a CC50 at 4 days [2] of over 25 µM and a pEC50 (HBV) of under 5.30. For the same compound, the pEC50 (rgRSV224 virus) was 7.75.
